Test results: ChEMBL document CHEMBL4823285, “Synthesis and evaluation of antimycobacterial activity of riboflavin derivatives” (Bioorg Med Chem Lett, 2021)
Values after ≈ are worked out from the molar mass of the structure shown. Active and inactive are the calls of the source. The calls are words filed in the database; no cut-off is given here.

Key:
[1] = test system: Mycobacterium tuberculosis; assay: Antimycobacterial activity against Mycobacterium tuberculosis H37Rv assessed as inhibition of visible growth […]; format: functional
THP-1 = assay: Cytotoxicity against human THP-1 cells assessed as cell viability measured after 96 hrs by MTT assay; format: cell-based; details: THP-1, 96 h
[2] = Selectivity index, ratio of MIC99 for Mycobacterium tuberculosis H37Rv to IC50 for human THP-1 cells; format: functional
Bacillus subtilis [3] = assay: Antibacterial activity against Bacillus subtilis assessed as inhibition of bacterial growth at 100 to 200 uM; format: functional; details: dose 100-200 µM
Staphylococcus aureus [4] = assay: Antibacterial activity against Staphylococcus aureus assessed as inhibition of bacterial growth at 100 to 200 uM; format: functional; details: dose 100-200 µM
FMN riboswitch = assay: Binding affinity to Lactobacillus plantarum NCDO 1752 FMN riboswitch at 150 nM measured by fluorescence assay; format: nucleic-acid assay; details: Lactiplantibacillus plantarum
Staphylococcus aureus [5] = assay: Antibacterial activity against Staphylococcus aureus assessed as inhibition of bacterial growth; format: functional
Bacillus subtilis [6] = assay: Antibacterial activity against Bacillus subtilis assessed as inhibition of bacterial growth; format: functional

Compound: CCCCCCCCCCCC(=O)OC[C@H](O)[C@H](O)[C@H](O)Cn1c2nc(=O)[nH]c(=O)c-2nc2cc(C)c(C)cc21
- MIC99 [1]: > 50 µM
- IC50 (THP-1): 50 µM
- Selectivity Index [2]: 1

Compound: CCCCCC(=O)OC[C@H](OC(=O)CCCCC)[C@H](OC(=O)CCCCC)[C@@H](Cn1c2nc(=O)[nH]c(=O)c-2nc2cc(C)c(C)cc21)OC(=O)CCCCC
- MIC99 [1]: 50 µM (≈ 38.4 µg/mL)
- IC50 (THP-1): > 50 µM
- Selectivity Index [2]: >1

Compound: CCCC(=O)OC[C@H](OC(=O)CCC)[C@H](OC(=O)CCC)[C@@H](Cn1c2nc(=O)[nH]c(=O)c-2nc2cc(C)c(C)cc21)OC(=O)CCC
- inhibition (INH) (Bacillus subtilis [3]): >90%
- MIC99 [1]: 50 µM (≈ 32.8 µg/mL)
- IC50 (THP-1): 100 µM
- Selectivity Index [2]: 2
- inhibition (INH) (Staphylococcus aureus [4]): >90%

Compound: CCCC(=O)OC[C@H](OC(=O)CCC)[C@H](OC(=O)CCC)[C@H](O)Cn1c2nc(=O)[nH]c(=O)c-2nc2cc(C)c(C)cc21
- inhibition (INH) (Bacillus subtilis [3]): >90%
- MIC99 [1]: 50 µM (≈ 29.3 µg/mL)
- IC50 (THP-1): > 100 µM
- Selectivity Index [2]: >2
- inhibition (INH) (Staphylococcus aureus [4]): >90%

Compound: Cc1cc2nc3c(=O)[nH]c(=O)nc-3n(CC(O)O)c2cc1C
- MIC99 [1]: 6.25 µM (≈ 1.89 µg/mL)
- IC50 (THP-1): > 100 µM
- Selectivity Index [2]: >10.7
- Kb (FMN riboswitch): 5.42 10^5/M

Compound: CCCCCCCCCCCC(=O)OC[C@H](OC(=O)CCCCCCCCCCC)[C@H](OC(=O)CCCCCCCCCCC)[C@H](O)Cn1c2nc(=O)[nH]c(=O)c-2nc2cc(C)c(C)cc21
- inhibition (Staphylococcus aureus [5]): Active
- MIC99 [1]: > 50 µM
- IC50 (THP-1): 50 µM
- Selectivity Index [2]: 1
- inhibition (Bacillus subtilis [6]): Active

Compound: CC(=O)OC[C@H](OC(C)=O)[C@H](OC(C)=O)[C@@H](Cn1c2nc(=O)[nH]c(=O)c-2nc2cc(C)c(C)cc21)OC(C)=O
- MIC99 [1]: 25 µM (≈ 13.6 µg/mL)
- IC50 (THP-1): 25 µM
- Selectivity Index [2]: 1

Compound: Cc1cc2nc3c(=O)[nH]c(=O)nc-3n(CCO)c2cc1C
- MIC99 [1]: > 50 µM
- IC50 (THP-1): > 50 µM
- Selectivity Index [2]: 1

Compound: CCCCCCCCCCCC(=O)OC[C@H](OC(=O)CCCCCCCCCCC)[C@H](O)[C@H](O)Cn1c2nc(=O)[nH]c(=O)c-2nc2cc(C)c(C)cc21
- MIC99 [1]: > 50 µM
- IC50 (THP-1): 25 µM
- Selectivity Index [2]: <0.5

Compound: CCCCCC(=O)OC[C@H](OC(=O)CCCCC)[C@H](OC(=O)CCCCC)[C@H](O)Cn1c2nc(=O)[nH]c(=O)c-2nc2cc(C)c(C)cc21
- MIC99 [1]: 25 µM (≈ 16.8 µg/mL)
- IC50 (THP-1): > 100 µM
- Selectivity Index [2]: >4

Compound: NNC(=O)c1ccncc1 [ISONIAZID]
- MIC99 [1]: 0.78 µM (≈ 0.107 µg/mL)
- IC50 (THP-1): 100 µM

Compound: CCCCCCCCCCCC(=O)OC[C@H](OC(=O)CCCCCCCCCCC)[C@H](OC(=O)CCCCCCCCCCC)[C@@H](Cn1c2nc(=O)[nH]c(=O)c-2nc2cc(C)c(C)cc21)OC(=O)CCCCCCCCCCC
- MIC (Staphylococcus aureus [5]): 100 µM (≈ 111 µg/mL)
- MIC99 [1]: > 50 µM
- IC50 (THP-1): > 50 µM
- Selectivity Index [2]: 1
- MIC (Bacillus subtilis [6]): 100 µM (≈ 111 µg/mL)

Compound: CCCC(=O)OC[C@H](OC(=O)CCC)[C@H](O)[C@H](O)Cn1c2nc(=O)[nH]c(=O)c-2nc2cc(C)c(C)cc21
- inhibition (INH) (Bacillus subtilis [3]): >90%
- MIC99 [1]: 25 µM (≈ 12.9 µg/mL)
- IC50 (THP-1): > 100 µM
- Selectivity Index [2]: >4
- inhibition (INH) (Staphylococcus aureus [4]): >90%

Compound: CC(=O)OC[C@H](OC(C)=O)[C@H](OC(C)=O)[C@@H](Cn1c2nc(=O)n(C)c(=O)c-2nc2cc(C)c(C)cc21)OC(C)=O
- MIC99 [1]: 12.5 µM (≈ 6.98 µg/mL)
- IC50 (THP-1): > 100 µM
- Selectivity Index [2]: >2
